We go through 34 molecules from article PMC6627609, “Targeting Quorum Sensing: High-Throughput Screening to Identify Novel LsrK Inhibitors” (International Journal of Molecular Sciences, 2019).

“And” between values parts separate entries of the source, which are not always exact repeats. Equal entries are not always repeated. Where two headings read alike, the source gives them in different places. Some results are limits rather than exact numbers.

Data set [1] addresses LsrK (Salmonella typhimurium, UniProt Q8ZKQ6). The data set is described as follows: biochemical. In kind it is biochemical, S. typhimurium. The settings on record: for Inhibition (%): 50 µM.
Data set [2] concerns the target T1, His-LsrK (Salmonella typhimurium, UniProt Q8ZKQ6). In words: Thermal shift assay. The settings on record: for shift in the Tm of His-LsrK: mean ± 95% CI; for shift in the Tm of His-LsrK (in words): dose range of test compound. The format is binding, S. typhimurium. Here is the method: Compounds were added to qPCR plates by Echo acoustic dispenser with a DMSO backfill to maintain a constant final concentration of DMSO in each well (the assay is tolerant up to 8% DMSO with no effect on Tm of LsrK). LsrK protein was added at a concentration of 1 µg per well in a volume of 10 µL with 1× Thermo thermal shift dye or 5× Sypro Orange dye (used for aurin tricarboxylic acid as this compound fluoresces with Thermo dye in 25 mM TEA, 200 µM MgCl2, pH 7.1). Appropriate DMSO-only negative controls and 1 mM ATP/DMSO positive controls were included in each test occasion. Using an Applied Biosystems Quant Studio 5 qPCR machine (Thermo Fisher Scientific, Waltham, MA, USA) the following thermal shift protocol was used: step 1—hold at 25 °C for 1 min; step 2—heat at 0.05 °C/s dissociation then hold at 99 °C for 1 min. Filter setting for Thermo dye: Ex/Em 580/623 nm and for Sypro Orange dye: Ex/Em 470/520 nm.

Data set [3] concerns mouse. Conditions: ref MicroSource annotations, cited from earlier work.
Data set [4] concerns E. coli LW7 pLW11. The data set is described as follows: AI-2 QS interference assay. In kind it is cell-based. The settings on record: for IC50: dose-response in the presence of PAβN, read-out: IC50 AI-2 QS inhibition.
Data set [5] addresses T1, His-LsrK. In words: MST assay. In kind it is binding, S. typhimurium. The settings on record: 95% CI.
Data set [6] relates to His-tagged control peptide or SDS denatured His-LsrK. The data set is described as follows: MST assay, specificity controls. In kind it is binding.
For data set [7] the following is noted: cited from earlier work.
For data set [8], the system named is rat. The settings on record: cited from earlier work.
Data set [9] relates to E. coli pBAC-lacZ. The data set is described as follows: Control strain β-gal assay (QS-independent lac promoter). The format is cell-based.
The mark [10] stands for this setting: ip, ref MicroSource annotations.
[11] abbreviates: po, ref MicroSource annotations.

T1 sequence (Q8ZKQ6 whole entry): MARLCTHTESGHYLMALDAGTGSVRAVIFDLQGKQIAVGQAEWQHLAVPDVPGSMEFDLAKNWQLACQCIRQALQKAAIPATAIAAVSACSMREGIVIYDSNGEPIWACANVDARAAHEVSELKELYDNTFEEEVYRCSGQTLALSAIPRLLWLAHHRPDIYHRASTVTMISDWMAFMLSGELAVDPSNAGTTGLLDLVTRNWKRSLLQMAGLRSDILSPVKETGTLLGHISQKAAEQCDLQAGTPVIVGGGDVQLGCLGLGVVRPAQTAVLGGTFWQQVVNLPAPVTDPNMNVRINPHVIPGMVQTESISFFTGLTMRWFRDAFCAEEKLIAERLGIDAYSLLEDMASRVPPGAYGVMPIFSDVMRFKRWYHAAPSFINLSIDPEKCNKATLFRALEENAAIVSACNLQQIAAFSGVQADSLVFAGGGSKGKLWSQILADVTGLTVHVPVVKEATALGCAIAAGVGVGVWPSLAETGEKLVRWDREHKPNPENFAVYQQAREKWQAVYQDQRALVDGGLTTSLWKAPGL
LsrK, sequence (Q8ZKQ6 whole entry): as above

As usually defined, the IC50 is the concentration at which inhibition is half-maximal. What is called inhibition is the drop in the measured response relative to a control, in per cent. Consider `CCCCCCCCCCCCCCCCC(C(=O)O)C(O)(CC(=O)O)C(=O)O` (stereo not shown) [AGARIC ACID], for which, in [1], the IC50 is 7 µM and the inhibition at 50 µM is 157%. Further, the “shift in the Tm of His-LsrK” value in [2] (10 µM) was −4.7 ± 0.70 °C.

As usually defined, the LD50 is the dose at which mortality reaches 50%. Turning to `CN[C@@H]1[C@@H](O[C@H]2O[C@H](CO)[C@@H](N)[C@H](O)[C@H]2O)OC2C[C@@H](N)[C@@H](O[C@H]3[C@H](O)[C@@H](O)[C@H](N)C[C@@H]3N)OC2[C@@H]1O` (stereo partly shown) [APRAMYCIN], the LD50 in data set [3] (iv) is on record as 280 mg/kg. Also, in data set [1], the inhibition at 50 µM is 3%.

Broadly, the Kd is the equilibrium constant for the complex coming apart. As for `O=C(O)C1=CC(=C(c2ccc(O)c(C(=O)O)c2)c2ccc(O)c(C(=O)O)c2)C=CC1=O` [AURIN TRICARBOXYLIC ACID], the “inhibition of AI-2 mediated QS” value in data set [4] (10 µM, in the presence of PAβN) is given as “No significant activity”. Besides, in data set [4] (50 µM, in the presence of PAβN), the “inhibition of AI-2 mediated QS” value is recorded as “No significant activity”. Also, in data set [1], the IC50 was determined as 1 µM and the inhibition at 50 µM amounted to 96%. In [2] (20 µM), the “shift in the Tm of His-LsrK” value was −0.85 ± 0.38 °C. The molecule further had a Kd in data set [5] of 0.408 ± 0.0699 µM. In addition, in [6], the “binding in MST to control peptide or SDS denatured His-LsrK” value (from here on “binding in MST”) was “no binding”.

Consider `CC1=C(O)C(=O)C=C2C1=CC=C1[C@@]2(C)CC[C@@]2(C)[C@@H]3C[C@](C)(C(=O)O)CC[C@]3(C)CC[C@]12C` [CELASTROL], for which, in [1], the midpoint of inhibition, the IC50, lay at 4 µM and the inhibition at 50 µM was 109%. The solubility result in data set [7] was “poor solubility”.

Take `C[C@@H]1CC[C@@]2(OC1)O[C@H]1C[C@H]3[C@@H]4CC=C5C[C@@H](O)CC[C@]5(C)[C@H]4CC[C@]3(C)[C@H]1[C@@H]2C` [DIOSGENIN]: the LD50 in data set [3] (po) is reported as more than 8000 mg/kg; in data set [8] (setting [10]), 4872 mg/kg. For the same molecule, the inhibition at 50 µM in data set [1] is 0%.

As to `C=C1CC[C@H](O)C/C1=C/C=C1\CCC[C@]2(C)[C@@H]([C@H](C)/C=C/[C@H](C)C(C)C)CC[C@@H]12` [ERGOCALCIFEROL], the inhibition at 50 µM in data set [1] came to 56%. Also, the LD50 in data set [8] (in vivo, po) was 56 mg/kg.

Turning to `CC(C)=CCC[C@]1(C)C=Cc2c(O)c3c(c(CC=C(C)C)c2O1)O[C@]12C(=C[C@@H]4C[C@H]1C(C)(C)O[C@@]2(C/C=C(/C)C(=O)O)C4=O)C3=O` [GAMBOGIC ACID], the inhibition at 50 µM in [1] amounted to 89%. Moreover, the LD50 in [8] (setting [10]) was 88 mg/kg.

In the case of `C[C@]1(OC(=O)/C=C/c2ccccc2)C[C@@H](O)[C@]2(O)C=CO[C@@H](O[C@@H]3O[C@H](CO)[C@@H](O)[C@H](O)[C@H]3O)[C@@H]21` [HARPAGOSIDE], the “inhibition of AI-2 mediated QS” value in [4] (10 µM, in the presence of PAβN) was “only minor”. Moreover, the inhibition at 50 µM in [4] (Escherichia coli, 50 µM, in the presence of PAβN, read-out: inhibition of AI-2 mediated QS) is approximately 50%; in [1], 108%. The IC50 was 14 µM in [4] (Escherichia coli) and 10 µM in data set [1]. Further, the “shift in the Tm of His-LsrK (in words)” value in data set [2] was “significant, dose-dependent, positive shift in the Tm”. In data set [5], this molecule displayed a Kd of 18.4 ± 0.9 µM. Also, the “binding in MST” value in data set [6] is on record as “No binding”.

In the case of `C[C@H](CCC(=O)O)[C@H]1CC[C@H]2[C@@H]3CC[C@@H]4C[C@H](O)CC[C@]4(C)[C@H]3CC[C@]12C` [LITHOCHOLIC ACID], the LD50 in data set [3] (po) was 3900 mg/kg. For the same molecule, the inhibition at 50 µM in data set [1] came out at 2%.

Consider `CC[C@@H](C)C(=O)O[C@H]1[C@H](O)[C@H]2[C@@H](CN3C[C@@H](C)CC[C@H]3[C@@]2(C)O)[C@@H]2C[C@]34O[C@]5(O)[C@@H](OC(=O)[C@@](C)(O)CC)CC[C@@]3(C)[C@@H]5[C@@H](OC(C)=O)[C@@H](OC(C)=O)[C@H]4[C@@]21O` [PROT[…]], for which the inhibition at 50 µM in data set [1] was found to be 1%. The 50% lethal dose (LD50) in [8] (setting [11]) is on record as 5 mg/kg.

Regarding `O=C1C=CC(=C(c2ccc(O)cc2)c2ccc(O)cc2)C=C1` [ROSOLIC ACID], in data set [4] (50 µM, in the presence of PAβN), the “inhibition of AI-2 mediated QS” value is recorded as “nearly complete inhibition”. The inhibition at 10 µM in data set [4] (Escherichia coli, 10 µM, in the presence of PAβN, read-out: inhibition of AI-2 mediated QS) was 68%. The IC50 in data set [4] (Escherichia coli) was 11 µM. In addition, in [1], the half-maximal inhibitory concentration (IC50) came to 1 µM and the inhibition at 50 µM stood at 119%. Further, in data set [2], the “shift in the Tm of His-LsrK (in words)” value is given as “positively stabilizes His-LsrK in thermal shift at high concentrations”. Moreover, in data set [9], the “effect on β-gal expression or activity in the control strain” value is given as “marginally affected”. Moreover, in data set [5], the Kd is 100 µM and ~100 µM. The “binding in MST” value in data set [6] is “No binding”.

As for `CC(C)[C@@H]1NC(=O)[C@H](C)OC(=O)[C@@H](C(C)C)NC(=O)[C@@H](C(C)C)OC(=O)[C@H](C(C)C)NC(=O)[C@H](C)OC(=O)[C@@H](C(C)C)NC(=O)[C@@H](C(C)C)OC(=O)[C@H](C(C)C)NC(=O)[C@H](C)OC(=O)[C@@H](C(C)C)NC(=O)[C@@H](C(C)C)OC1=O` [VALINOMYCIN], the inhibition at 50 µM in data set [1] turned out to be 1%. Further, in data set [8] (setting [11]), the LD50 is given as 4 mg/kg.

In the case of `C/C=C(\C)C(=O)O[C@H]1[C@H](OC(C)=O)[C@@]2(CO)C(CC1(C)C)C1=CC[C@@H]3[C@@]4(C)CC[C@H](O[C@@H]5O[C@H](C(=O)O)[C@@H](O[C@@H]6O[C@H](CO)[C@@H](O)[C@H](O)[C@H]6O)[C@H](O)[C@H]5O[C@@H]5O[C@H](CO)[C@@H](O)[C@H](O)[C@H]5O)[C@H](CO)C4CC[C@@]3(C)[C@@]1(C)C[C@H]2O` (stereo partly drawn) [beta-ESCIN], the inhibition at 50 µM in data set [1] was determined as 129%.

For the molecule `NC(C(=O)O)C(O)C(=O)O` (stereo not drawn) [d.l-threo-3-HYDROXYASPARTIC ACID], in data set [1], the “Inhibition (%)” value is 3.

Regarding `CC(=O)Oc1cccc(C)c1` [meta-CRESYL ACETATE], the “Inhibition (%)” value in data set [1] amounted to 1.

As to AGELASINE, the “Inhibition (%)” value in data set [1] was found to be 102.

As to ASARININ (-), in data set [1], the “Inhibition (%)” value was 1.

As for BACITRACIN, the “Inhibition (%)” value in data set [1] turned out to be 5.

For the molecule BENZALKONIUM CHLORIDE, the “Inhibition (%)” value in [1] was determined as 121.

With BERBAMINE HYDROCHLORIDE, in data set [1], the “Inhibition (%)” value worked out at 1.

CHLOROPHYLLIDE Cu COMPLEX Na SALT: the “Inhibition (%)” value in data set [1] amounted to 104.

In the case of CRESOL, the “Inhibition (%)” value in [1] is on record as 0.

On to GARLICIN, for which the “Inhibition (%)” value in data set [1] came out at 10.

As to GRAMICIDIN, the “Inhibition (%)” value in data set [1] is 0.

As for HECOGENIN, in data set [1], the “Inhibition (%)” value is 2.

As for IVERMECTIN, the “Inhibition (%)” value in data set [1] is recorded as 1.

Turning to KHAYANTHONE, the “Inhibition (%)” value in data set [1] is on record as 11.

On to “MANGANESE TETRAKIS(4-CARBOXYPHENYL)PORPHYRIN CHLORDE”, for which the “Inhibition (%)” value in data set [1] came out at 1.

As to MECLOCYCLINE SULFOSALICYLATE, the “Inhibition (%)” value in data set [1] is recorded as 93.

Turning to METHIONINE SULFOXIMINE (L), the “Inhibition (%)” value in [1] was 2.

For the molecule NEOMYCIN SULFATE, in [1], the “Inhibition (%)” value was determined as 1.

Consider POLYMYXIN B SULFATE, for which the “Inhibition (%)” value in [1] was determined as 48.

In the case of TANNIC ACID, the “Inhibition (%)” value in data set [1] came to 94.

As for “TEICOPLANIN [TEICOPLANIN [A(2-1) shown]]”, the “Inhibition (%)” value in data set [1] is 148%.
